Key:
[1] = target: NS3/NS4 complexes (Hepatitis C virus genotype 1a, UniProt P27958); test: NS3/NS4 inhibition assay (IC50); type: biochemical; conditions: NS3/NS4 activity; 23° C., 25 μM NS4A peptide
Text: (§1) NS3-NS4 inhibition activity can be determined using known assay methods. For example, NS3/NS4 complexes may be formed and inhibitory concentrations of test compounds determined as described in U.S. Patent Application Publication Number 2007/0054842 paragraph numbers 1497-1509, which is incorporated herein by reference in its entirety. Similarly, hepatitis C replicon EC50 may be determined using known assay methods such as described in U.S. Patent Application Publication Number 2007/0054842 paragraph numbers 1510-1515, which is incorporated herein by reference in its entirety. Assays may be conducted at ambient temperature (23° C.) in assay buffer containing 50 mM Tris-HCl, pH 7.5, 15% glycerol, 0.6 mM Lauryldimethylamine Oxide (LDAO), 25 μM NS4A peptide, and 10 mM Dithiothreitol (DTT).

[2] = test system: hepatitis C replicon; test: hepatitis C replicon EC50 assay; type: cell-based; conditions: Hepatitis C virus; hepatitis C replicon; read-out: EC50
Text: as §1

NS3/NS4 complexes, sequence (P27958 1027-1657, one chain of several): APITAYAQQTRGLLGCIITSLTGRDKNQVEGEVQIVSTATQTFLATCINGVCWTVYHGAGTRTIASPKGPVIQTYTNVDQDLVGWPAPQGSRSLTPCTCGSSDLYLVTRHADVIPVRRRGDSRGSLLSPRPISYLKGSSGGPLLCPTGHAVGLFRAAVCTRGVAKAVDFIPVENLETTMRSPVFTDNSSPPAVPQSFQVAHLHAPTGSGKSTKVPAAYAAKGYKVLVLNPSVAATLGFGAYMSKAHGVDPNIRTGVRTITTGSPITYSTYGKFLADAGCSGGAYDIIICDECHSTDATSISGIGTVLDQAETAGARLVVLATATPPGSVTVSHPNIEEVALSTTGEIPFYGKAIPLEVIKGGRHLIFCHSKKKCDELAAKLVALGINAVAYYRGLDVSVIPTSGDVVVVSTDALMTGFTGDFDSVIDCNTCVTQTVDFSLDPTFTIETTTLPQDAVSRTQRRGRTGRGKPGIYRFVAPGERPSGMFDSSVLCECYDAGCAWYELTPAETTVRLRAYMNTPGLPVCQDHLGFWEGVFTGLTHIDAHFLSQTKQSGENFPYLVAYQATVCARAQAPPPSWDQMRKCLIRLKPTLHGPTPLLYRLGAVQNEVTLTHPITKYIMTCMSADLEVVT

Structure (SMILES)	IC50 [1]	EC50 [2]
CCn1c(O[C@@H]2C[C@H]3C(=O)N[C@]4(C(=O)NS(=O)(=O)N(C)C)C[C@H]4/C=C\CCCCC[C@H](NC(=O)OC(C)(C)C)C(=O)N3C2)nc2c(-c3nc(C(C)C)c(C)s3)cccc21 [Compound 1432]	< 10 nM	10 to 100 nM
CC(C)n1c(O[C@@H]2C[C@H]3C(=O)N[C@]4(C(=O)NS(=O)(=O)C5(C)CC5)C[C@H]4/C=C\CCCCC[C@H](NC(=O)OC(C)(C)C)C(=O)N3C2)nc2c(-c3nc(Cc4ccccc4)cs3)cccc21 [Compound 1767]	< 10 nM	< 10 nM
Cc1sc(-c2cccc3c2nc(O[C@@H]2C[C@H]4C(=O)N[C@]5(C(=O)NS(=O)(=O)N(C)C)C[C@H]5/C=C\CCCCC[C@H](NC(=O)OC(C)(C)C)C(=O)N4C2)n3C(C)C)nc1Cc1ccccc1 [Compound 1216]	< 10 nM	< 10 nM
CC(C)n1c(O[C@@H]2C[C@H]3C(=O)N[C@]4(C(=O)NS(=O)(=O)N(C)C)C[C@H]4/C=C\CCCCC[C@H](NC(=O)OC(C)(C)C)C(=O)N3C2)nc2c(NC(=O)NCc3ccccc3)cccc21 [Compound 1423]	< 10 nM	< 10 nM
COc1ccc(-c2csc(-c3cccc4c3nc(O[C@@H]3C[C@H]5C(=O)N[C@]6(C(=O)NS(=O)(=O)N(C)C)C[C@H]6/C=C\CCCCC[C@H](NC(=O)OC(C)(C)C)C(=O)N5C3)n4C(C)C)n2)cc1 [Compound 1752]	< 10 nM	10 to 100 nM
CC(C)n1c(O[C@@H]2C[C@H]3C(=O)N[C@]4(C(=O)NS(=O)(=O)C5(C)CC5)C[C@H]4/C=C\CCCCC[C@H](Nc4ccccc4)C(=O)N3C2)nc2c(-c3ccccc3)cccc21 [Compound 203]	< 10 nM	10 to 100 nM
CN(C)S(=O)(=O)NC(=O)[C@@]12C[C@H]1/C=C\CCCCC[C@H](NC(=O)OC(C)(C)C)C(=O)N1C[C@H](Oc3cnc4ccccc4n3)C[C@H]1C(=O)N2 [Compound 301]	< 10 nM	10 to 100 nM
Cc1cccc(-c2csc(-c3cccc4c3nc(O[C@@H]3C[C@H]5C(=O)N[C@]6(C(=O)NS(=O)(=O)N(C)C)C[C@H]6/C=C\CCCCC[C@H](NC(=O)OC(C)(C)C)C(=O)N5C3)n4C(C)C)n2)c1 [Compound 1750]	< 10 nM	10 to 100 nM
CNC(=O)Nc1cccc2c1nc(O[C@@H]1C[C@H]3C(=O)N[C@]4(C(=O)NS(=O)(=O)N(C)C)C[C@H]4/C=C\CCCCC[C@H](NC(=O)OC(C)(C)C)C(=O)N3C1)n2C(C)C [Compound 1426]	< 10 nM	10 to 100 nM
Cc1oc(-c2cccc3c2nc(O[C@@H]2C[C@H]4C(=O)N[C@]5(C(=O)NS(=O)(=O)N(C)C)C[C@H]5/C=C\CCCCC[C@H](NC(=O)OC(C)(C)C)C(=O)N4C2)n3C(C)C)nc1Cc1ccccc1 [Compound 1214]	< 10 nM	< 10 nM
CC(C)n1c(O[C@@H]2C[C@H]3C(=O)N[C@]4(C(=O)NS(=O)(=O)C5(C)CC5)C[C@H]4/C=C\CCCCC[C@H](NC(=O)OC(C)(C)C)C(=O)N3C2)nc2c(-c3csc(N4CCCCC4)n3)cccc21 [Compound 1706]	< 10 nM	< 10 nM
Cc1nc(-c2cccc3c2nc(O[C@@H]2C[C@H]4C(=O)N[C@]5(C(=O)NS(=O)(=O)C6CC6)C[C@H]5/C=C\CCCCC[C@H](NC(=O)OC(C)(C)C)C(=O)N4C2)n3C(C)C)sc1C [Compound 217]	< 10 nM	< 10 nM
CC(C)n1c(O[C@@H]2C[C@H]3C(=O)N[C@]4(C(=O)NS(=O)(=O)C5(C)CC5)C[C@H]4/C=C\CCCCC[C@H](Nc4ccccc4)C(=O)N3C2)nc2c(C(F)(F)F)cccc21 [Compound 204]	< 10 nM	10 to 100 nM
CC(C)c1nc2ccccc2nc1O[C@@H]1C[C@H]2C(=O)N[C@]3(C(=O)NS(=O)(=O)C4(C)CC4)C[C@H]3/C=C\CCCCC[C@H](Nc3ccccc3)C(=O)N2C1 [Compound 311]	< 10 nM	10 to 100 nM
CC(C)n1c(O[C@@H]2C[C@H]3C(=O)N[C@]4(C(=O)NS(=O)(=O)N(C)C)C[C@H]4/C=C\CCCCC[C@H](NC(=O)OC(C)(C)C)C(=O)N3C2)nc2cnccc21 [Compound 209]	< 10 nM	10 to 100 nM
CC(C)NC(=O)c1cccc2c1nc(O[C@@H]1C[C@H]3C(=O)N[C@]4(C(=O)NS(=O)(=O)C5(C)CC5)C[C@H]4/C=C\CCCCC[C@H](Nc4ccccc4)C(=O)N3C1)n2C(C)C [Compound 272]	< 10 nM	10 to 100 nM
CC(C)n1c(O[C@@H]2C[C@H]3C(=O)N[C@]4(C(=O)NS(=O)(=O)C5(C)CC5)C[C@H]4/C=C\CCCCC[C@H](Nc4ccccc4)C(=O)N3C2)nc2c(NC(N)=O)cccc21 [Compound 1410]	< 10 nM	10 to 100 nM
Cc1sc(-c2cccc3c2nc(O[C@@H]2C[C@H]4C(=O)N[C@]5(C(=O)NS(=O)(=O)C6(C)CC6)C[C@H]5/C=C\CCCCC[C@H](NC(=O)OC(C)(C)C)C(=O)N4C2)n3C(C)C)nc1Cc1ccccc1 [Compound 1217]	< 10 nM	< 10 nM

Structure (SMILES)	IC50 [1]	EC50 [2]
CC(C)c1ccn(-c2cccc3c2nc(O[C@@H]2C[C@H]4C(=O)N[C@]5(C(=O)NS(=O)(=O)C6(C)CC6)C[C@H]5/C=C\CCCCC[C@H](NC(=O)OC(C)(C)C)C(=O)N4C2)n3C(C)C)n1 [Compound 1404]	< 10 nM	< 10 nM
CC(C)n1c(O[C@@H]2C[C@H]3C(=O)N[C@]4(C(=O)NS(=O)(=O)N(C)C)C[C@H]4/C=C\CCCCC[C@H](NC(=O)OC(C)(C)C)C(=O)N3C2)nc2c(-c3nc(Cc4ccc(F)c(F)c4)cs3)cccc21 [Compound 1755]	< 10 nM	10 to 100 nM
CN(C)S(=O)(=O)NC(=O)[C@@]12C[C@H]1/C=C\CCCCC[C@H](NC(=O)OC(C)(C)C)C(=O)N1C[C@H](Oc3nc4ccccc4nc3C(F)(F)F)C[C@H]1C(=O)N2 [Compound 303]	< 10 nM	< 10 nM
CC(C)(C)OC(=O)N[C@H]1CCCCC/C=C\[C@@H]2C[C@@]2(C(=O)NS(=O)(=O)C2(C)CC2)NC(=O)[C@@H]2C[C@@H](n3nnc(-c4ccccc4)n3)CN2C1=O [Compound 801]	< 10 nM	10 to 100 nM
COc1ccc2c(O[C@@H]3C[C@H]4C(=O)N[C@]5(C(=O)NS(=O)(=O)C6(C)CC6)C[C@H]5/C=C\CCCCC[C@H](Nc5cccc(C(=O)N6CCN(c7cccc(C(F)(F)F)c7)CC6)c5)C(=O)N4C3)cc(-c3nc(C(C)C)cs3)nc2c1C [Compound 124]	< 10 nM	10 to 100 nM
COc1ccc(-c2nnn([C@@H]3C[C@H]4C(=O)N[C@]5(C(=O)NS(=O)(=O)C6(C)CC6)C[C@H]5/C=C\CCCCC[C@H](Nc5ccccc5)C(=O)N4C3)n2)cc1 [Compound 804]	< 10 nM	10 to 100 nM
CCc1nc2ccccc2nc1O[C@@H]1C[C@H]2C(=O)N[C@]3(C(=O)NS(=O)(=O)N(C)C)C[C@H]3/C=C\CCCCC[C@H](NC(=O)OC(C)(C)C)C(=O)N2C1 [Compound 302]	< 10 nM	< 10 nM
Cc1ccccc1-c1csc(-c2cccc3c2nc(O[C@@H]2C[C@H]4C(=O)N[C@]5(C(=O)NS(=O)(=O)C6(C)CC6)C[C@H]5/C=C\CCCCC[C@H](NC(=O)OC(C)(C)C)C(=O)N4C2)n3C(C)C)n1 [Compound 1712]	< 10 nM	< 10 nM
CC(C)c1coc(-c2cccc3c2nc(O[C@@H]2C[C@H]4C(=O)N[C@]5(C(=O)NS(=O)(=O)N(C)C)C[C@H]5/C=C\CCCCC[C@H](NC(=O)OC(C)(C)C)C(=O)N4C2)n3C(C)C)n1 [Compound 1435]	< 10 nM	< 10 nM
CCCn1c(O[C@@H]2C[C@H]3C(=O)N[C@]4(C(=O)NS(=O)(=O)N(C)C)C[C@H]4/C=C\CCCCC[C@H](NC(=O)OC(C)(C)C)C(=O)N3C2)nc2ccccc21 [Compound 1223]	< 10 nM	< 10 nM
Cc1ccc(Cc2csc(-c3cccc4c3nc(O[C@@H]3C[C@H]5C(=O)N[C@]6(C(=O)NS(=O)(=O)C7(C)CC7)C[C@H]6/C=C\CCCCC[C@H](NC(=O)OC(C)(C)C)C(=O)N5C3)n4C(C)C)n2)cc1 [Compound 1719]	< 10 nM	< 10 nM
CCN1CCN(C(=O)c2cccc(N[C@H]3CCCCC/C=C\[C@@H]4C[C@@]4(C(=O)NS(=O)(=O)C4(C)CC4)NC(=O)[C@@H]4C[C@@H](Oc5cc(-c6nc(C(C)C)cs6)nc6c(C)c(OC)ccc56)CN4C3=O)c2)CC1 [Compound 112]	< 10 nM	< 10 nM
COc1ccc2c(O[C@@H]3C[C@H]4C(=O)N[C@]5(C(=O)NS(=O)(=O)C6(C)CC6)C[C@H]5/C=C\CCCCC[C@H](Nc5cccc(F)c5)C(=O)N4C3)nc(-c3nc(C(C)C)cs3)cc2c1C [Compound 1005]	< 10 nM	> 100 nM
Cc1ccccc1-c1cccc2c1nc(O[C@@H]1C[C@H]3C(=O)N[C@]4(C(=O)NS(=O)(=O)C5(C)CC5)C[C@H]4/C=C\CCCCC[C@H](Nc4ccccc4)C(=O)N3C1)n2C(C)C [Compound 250]	< 10 nM	> 100 nM
CCc1csc(-c2cccc3c2nc(O[C@@H]2C[C@H]4C(=O)N[C@]5(C(=O)NS(=O)(=O)N(C)C)C[C@H]5/C=C\CCCCC[C@H](NC(=O)OC(C)(C)C)C(=O)N4C2)n3C(C)C)n1 [Compound 292]	< 10 nM	< 10 nM
CC(C)n1c(O[C@@H]2C[C@H]3C(=O)N[C@]4(C(=O)NS(=O)(=O)C5(C)CC5)C[C@H]4/C=C\CCCCC[C@H](NC(=O)OC(C)(C)C)C(=O)N3C2)nc2c(-c3nc(Cc4ccc(F)c(F)c4)cs3)cccc21 [Compound 1721]	< 10 nM	< 10 nM
Cc1oc(-c2cccc3c2nc(O[C@@H]2C[C@H]4C(=O)N[C@]5(C(=O)NS(=O)(=O)C6(C)CC6)C[C@H]5/C=C\CCCCC[C@H](NC(=O)OC(C)(C)C)C(=O)N4C2)n3C(C)C)nc1Cc1ccccc1 [Compound 1215]	< 10 nM	< 10 nM
